Measurements published in paper PMC7815315, “Atomic structures of respiratory complex III2, complex IV, and supercomplex III2-IV from vascular plants” (eLife, 2021).

Biological target: T1, VrCIII2 (complex III dimer, cytochrome bc1 complex); cytochrome b (COB) sites (Vigna radiata, UniProt E9KZM1)
T1 construct: native obligate dimer, 10 subunits per monomer, from mitochondria of etiolated hypocotyls; digitonin-extracted, amphipol A8-35; RNA-edited COB; partially purified (sucrose gradient); with Cytochrome c1, heme protein, mitochondrial; Cytochrome b-c1 complex subunit Rieske, mitochondrial; Mitochondrial-processing peptidase subunit alpha; Mitochondrial-processing peptidase subunit beta; Cytochrome b-c1 complex subunit 6; Cytochrome b-c1 complex subunit 7; Cytochrome b-c1 complex subunit 8; Cytochrome b-c1 complex subunit 9; Cytochrome b-c1 complex subunit 10
Experiment: spectroscopic cytochrome c reduction at […] nm, pooled gradient fractions
Format: biochemical
Conditions: 100 uM reduced decylubiquinone, 100 uM equine cyt c, pH 7.8, room temperature

## CCCCCCCCCCc1c(C)c(O)c(OC)c(OC)c1O [reduced decylubiquinone]
  spectroscopic cytochrome c reduction at 550 nm, pooled gradient fractions: CIII2 respiratory activity (electron transfer from reduced decylubiquinone to cytochrome c)
